Patent US20090227619A1, “Harmine derivatives, intermediates used in their preparations, preparation processes and use therefo” (priority 2003, published 2009)
Where two headings read alike, the source gives them in different places.

What was measured:
CT-DNA [1] = assay: DNA thermal denaturation, determination of ΔTm; format: binding; settings: CT-DNA thermal denaturation; 20 uM compound; Tm of CT-DNA alone 61° C.
Procedure: Experiments were carried out in PE buffer (1 mM Na2HPO4, 0.1 mM EDTA, pH 7.6) in a thermostatically controlled cell hold, and the quartz cuvette (1 cm path length) was heated by circulating water at a heating rate of 0.5° C./min from 25 to 95° C. Amsacrine and Doxorubicin Hydrochloride were used as standards. In all cases, the concentration of CT-DNA was 15 ug/ml. The ‘melting’ temperature Tm was taken as the mid-point of the hyperchromic transition.
ΔTm=Tm^drug-DNA complex−Tm^DNA alone
The ΔTm of each compound was calculated, Experiments were repeated three times, and an average value was calculated.

Lovo = assay: In vitro cytotoxicity, IC50 by MTT method, Lovo; format: cell-based; settings: Lovo cell strain, read-out: IC50 Lovo
Procedure, shortened: (§1)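 MTT viability, 48 h exposure: cells 10^5/ml in RPMI1640 + 10% FBS, 37 °C/5% CO2; MTT 4 h, DMSO solubilisation, A490.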

HepG2 = assay: In vitro cytotoxicity, IC50 by MTT method, HepG2; format: cell-based, human; settings: HepG2 cell strain, read-out: IC50 HepG2
Procedure, shortened: as §1

NIH3T3 = assay: In vitro cytotoxicity, IC50 by MTT method, NIH3T3; format: cell-based; settings: NIH3T3 cell strain, read-out: IC50 NIH3T3
Procedure, shortened: as §1

BGC-823 = assay: In vitro cytotoxicity, IC50 by MTT method, BGC-823; format: cell-based; settings: BGC823 cell strain, read-out: IC50 BGC823
Procedure, shortened: as §1

Bel-7402 = assay: In vitro cytotoxicity, IC50 by MTT method, Bel-7402; format: cell-based; settings: Bel7402 cell strain, read-out: IC50 Bel7402
Procedure, shortened: as §1

Hela = assay: In vitro cytotoxicity, IC50 by MTT method, Hela; format: cell-based; settings: Hela cell strain, read-out: IC50 Hela
Procedure, shortened: as §1

PLA-801 = assay: In vitro cytotoxicity, IC50 by MTT method, PLA-801; format: cell-based; settings: PLA-801 cell strain; read-out: IC50 PLA-801
Procedure, shortened: as §1

CT-DNA [2] = assay: UV absorption spectrum method with CT-DNA; format: binding; settings: CT-DNA 40 ug/ml, compound 20 uM, 37° C. for 2 h, OD at 260 nm
Procedure: Compounds to be tested (20 uM) were added into the PE buffer solution, and its scan curve was identified by the spectrograph at a wavelength of from 200 to 400 nm. CT-DNA (40 ug/ml) and compounds to be tested (20 uM) were added into the PE buffer solution. The mixture was cultured at 37° C. for 2 h, and its scan curve was identified by the UV spectrograph at a wavelength of from 200 to 400 nm. […] After that, the OD value at 260 nm of the scan curve of the medicaments tested and that of the CT-DNA mixture OD value at 260 nm of the scan curve were calculated and compared to determine the influences of the medicaments tested on the UV absorption spectrum of the DNA molecules.

[3] = Solubility (physico-chemical data tables); settings: qualitative
S180 sarcoma = settings: S180 sarcoma; for Body weight of the animals, beginning, First time / Body weight of the animals, end, First time / Inhibition rate, First time / Weight of the tumor X ± SD, First time / Body weight of the animals, beginning, Second time / Body weight of the animals, end, Second time / Inhibition rate, Second time: ip × 10qd
Text: There was one group of 8 to 10 mice C57BL/6 and Kunming mice for the anti-tumor tests and two groups of mice for negative control.
(3) Sources of tumors: Lewis lung cancer cells and S180 sarcoma in mice, which were sub-cultured and maintained by Pharmacological Center of Shanghai Pharmaceutical Industrial Research Institute.
All samples were weighed and added a small amount of Tween-80 to facilitate dissolution during the experiment, and then 0.5% CMC-Na solution was gradually added to achieve the desired concentration. The volume for experiment was 0.5 ml/20 g mouse.
The medicaments were intraperitoneally administered once a day continuously for 10 days.
For the negative control group, a vehicle of the same volume was intraperitoneally administered once a day continuously for 10 days. For the positive control group, CTX was administered in the dosage of 30 mg/kg once a day continuously for 7 days.
In vivo anti-tumor subcutaneous vaccination in the axilla was employed. Wildly grown tumor source was taken under sterile conditions to form a cell suspension of about 1×10^7 ml by homogenization method. For a corresponding mouse host, the suspension was injected in the axilla in an amount of 0.2 ml/mouse. The next day, the medicaments were administered according to the design of the tests. About three weeks later, all the groups of animals were executed. The tumors were taken from the animals and weighed. The inhibition rate of tumors was calculated according to the following formula:
T: average tumor weight of treated group; C: average tumor weight of negative control group.

Kunming mice = settings: for Death rate: single i.p.
Lewis lung cancer = settings: Lewis lung cancer; for Body weight of the animals, end, First time / Body weight of the animals, end, Second time: ip × 10qd;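 as to all read-outs here: mice implanted subcutaneously in the axilla with Lewis lung tumor cells, treated starting the following day, killed roughly three weeks after implantation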
in vivo = settings: both, mouse, ip
[4] = Table 15, 1,3,9-substituted β-carboline derivatives
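For Death rate in this document: acute toxicity in Kunming mice grouped by sex, one intraperitoneal dose at five graded levels in Tween-80 plus 0.5% CMC-Na, deaths monitored over two weeks.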
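For LD50 in this document: acute toxicity in Kunming mice grouped by sex, one intraperitoneal dose at five graded levels in Tween-80 plus 0.5% CMC-Na, deaths monitored over two weeks.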

For CCCCn1c2ccccc2c2ccncc21 [Compound 83, 9-n-butyl-β-carboline], the ΔTm (CT-DNA [1]) was 2.4 °C, the IC50 (Lovo; Homo sapiens) was 130 µM and the IC50 (HepG2; Homo sapiens) was 100 µM. It also gave an IC50 (NIH3T3; Mus musculus) of 80 µM, an IC50 (BGC-823; Homo sapiens, BGC-823) of 100 µM and a melting point of 78 to 79 °C. For the same compound, the IC50 (Bel-7402; Homo sapiens, Bel-7402) was 160 µM, the IC50 (Hela; Homo sapiens) was 90 µM and the IC50 (PLA-801) was 130 µM. The “Influence on the UV absorption of DNA” value (CT-DNA [2]) was “reduce the UV absorption of DNA”.
Cc1nc(C(=O)O)cc2c3ccccc3n(Cc3c(F)c(F)c(F)c(F)c3F)c12 [Compound 66, 9-(2′,3′,4′,5′,6′-pentafluoro)benzyl-1-methyl-β-carboline-3-carboxylic acid] gave an IC50 (Lovo) of 80 µM, an IC50 (HepG2) of 120 µM and an IC50 (NIH3T3) of 80 µM. For the same compound, the IC50 (BGC-823) was 160 µM, the IC50 (Bel-7402) was 120 µM and the Solubility [3, 4] was “soluble in DMSO”. The IC50 (Hela) was 110 µM, the IC50 (PLA-801) was 190 µM and the “Influence on the UV absorption of DNA” value (CT-DNA [2]) was “increase the UV absorption of DNA”.
For O=C(O)c1cc2c3ccccc3n(CCCc3ccccc3)c2cn1 [Compound 48, 9-phenylpropyl-β-carboline-3-carboxylic acid], the IC50 (Lovo; Homo sapiens) was 10 µM, the IC50 (HepG2; Homo sapiens) was 30 µM and the IC50 (NIH3T3; Mus musculus) was 30 µM. The IC50 (BGC-823; Homo sapiens, BGC-823) was 30 µM, the “Body weight of the animals, beginning, First time” value (S180 sarcoma; Dosage 50 (mg/ml)) was 19.4 g and the “Body weight of the animals, end, First time” value (from here on “Body weight … end, First time”) (S180 sarcoma; Dosage 50 (mg/ml)) was 24.8 g. The “Inhibition rate, First time” value (S180 sarcoma; Dosage 50 (mg/ml)) was 19.48%, the “Weight of the tumor X ± SD, First time” value (S180 sarcoma; Dosage 50 (mg/ml)) was 2.15 ± 0.39 g and the “Body weight of the animals, beginning, Second time” value (S180 sarcoma; Dosage 50 (mg/ml)) was 18.6 g. For the same compound, the “Body weight of the animals, end, Second time” value (shortened to “Body weight … end, Second time”) (S180 sarcoma; Dosage 50 (mg/ml)) was 25.8 g, the “Inhibition rate, Second time” value (S180 sarcoma; Dosage 50 (mg/ml)) was 21.85% and the “Weight of the tumor X ± SD, Second time” value (S180 sarcoma; Dosage 50, ip × 10qd) was 2.11 ± 0.25 g. For the same compound, the “Body weight of the animals, beginning, First time” value (S180 sarcoma; Dosage 100 (mg/ml)) was 19.4 g, the “Body weight … end, First time” value (S180 sarcoma; Dosage 100 (mg/ml)) was 24.8 g and the “Inhibition rate, First time” value (S180 sarcoma; Dosage 100 (mg/ml)) was 31.09%. The “Weight of the tumor X ± SD, First time” value (S180 sarcoma; Dosage 100 (mg/ml)) was 1.84 ± 0.11 g, the “Body weight of the animals, beginning, Second time” value (S180 sarcoma; Dosage 100 (mg/ml)) was 18.5 g and the “Body weight … end, Second time” value (S180 sarcoma; Dosage 100 (mg/ml)) was 26.0 g. For the same compound, the “Inhibition rate, Second time” value (S180 sarcoma; Dosage 100 (mg/ml)) was 32.22%, the “Weight of the tumor X ± SD, Second time” value (S180 sarcoma; Dosage 100, ip × 10qd) was 1.83 ± 0.16 g and the “Inhibition rate (%) S180 sarcomata” value (S180 sarcoma; comparison table 43, in vivo) was 32.22%. For the same compound, the IC50 (Bel-7402; Homo sapiens, Bel-7402) was 50 µM, the Death rate (Kunming mice; 50% male 50% female mice, 240 mg/kg) was 60 and the Death rate (Kunming mice; 50% male 50% female mice, 300 mg/kg) was 100. It also gave a Death rate (Kunming mice; female mice, 240 mg/kg) of 60, a Death rate (Kunming mice; female mice, 300 mg/kg) of 100 and a Death rate (Kunming mice; male mice, 240 mg/kg) of 60. The Death rate (Kunming mice; male mice, 300 mg/kg) was 100, the LD50 (Kunming mice; mouse, in vivo, ip) was 193 to 249 mg/kg and the IC50 (Hela; Homo sapiens) was 100 µM. The “Body weight … end, First time” value (Lewis lung cancer; Dosage 50 (mg/ml)) was 25.3 g, the “Body weight … end, Second time” value (Lewis lung cancer; Dosage 50 (mg/ml)) was 25.0 g and the “Body weight of the animals, beginning, First time” value (Lewis lung cancer; Dosage 50, ip × 10qd) was 20.1 g. For the same compound, the “Inhibition rate, First time” value (Lewis lung cancer; Dosage 50, ip × 10qd) was 25.10%, the “Weight of the tumor X ± SD, First time” value (Lewis lung cancer; Dosage 50, ip × 10qd) was 1.82 ± 0.10 g and the “Body weight of the animals, beginning, Second time” value (Lewis lung cancer; Dosage 50, ip × 10qd) was 19.0 g. For the same compound, the “Inhibition rate, Second time” value (Lewis lung cancer; Dosage 50, ip × 10qd) was 28.67%, the “Weight of the tumor X ± SD, Second time” value (Lewis lung cancer; Dosage 50, ip × 10qd) was 2.09 ± 0.19 g and the “Body weight … end, First time” value (Lewis lung cancer; Dosage 100 (mg/ml)) was 24.8 g. For the same compound, the “Body weight … end, Second time” value (Lewis lung cancer; Dosage 100 (mg/ml)) was 25.2 g, the “Body weight of the animals, beginning, First time” value (Lewis lung cancer; Dosage 100, ip × 10qd) was 19.8 g and the “Inhibition rate, First time” value (Lewis lung cancer; Dosage 100, ip × 10qd) was 34.98%. The “Weight of the tumor X ± SD, First time” value (Lewis lung cancer; Dosage 100, ip × 10qd) was 1.58 ± 0.08 g, the “Body weight of the animals, beginning, Second time” value (Lewis lung cancer; Dosage 100, ip × 10qd) was 19.3 g and the “Inhibition rate, Second time” value (Lewis lung cancer; Dosage 100, ip × 10qd) was 39.59%. The “Weight of the tumor X ± SD, Second time” value (Lewis lung cancer; Dosage 100, ip × 10qd) was 1.77 ± 0.15 g, the “Inhibition rate (%) Lewis cancer” value (Lewis lung cancer; comparison table 43, in vivo) was 39.59% and the IC50 (PLA-801) was 260 µM. The LD50 at 2 weeks (in vivo) was 219 mg/kg.
In the case of O=C(O)c1cc2c3ccccc3n(Cc3c(F)c(F)c(F)c(F)c3F)c2cn1 [Compound 49, 9-(2′,3′,4′,5′,6′-pentafluoro)benzyl-β-carboline-3-carboxylic acid], the IC50 (Lovo) is reported as 10 µM, the IC50 (HepG2) is reported as 30 µM and the IC50 (NIH3T3) is reported as 20 µM. The IC50 (BGC-823) was 40 µM, the IC50 (Bel-7402) was 60 µM and the Solubility ([3]; Table 12, 3,9-disubstituted β-carboline derivatives) was “soluble in DMSO”. For the same compound, the IC50 (Hela) was 40 µM, the IC50 (PLA-801) was 90 µM and the “Influence on the UV absorption of DNA” value (CT-DNA [2]) was “increase the UV absorption of DNA”.
Work on Cc1nc(C(=O)O)cc2c3ccccc3n(CC(=O)c3ccccc3)c12 [Compound 67, 9-acetophenone-1-methyl-β-carboline-3-carboxylic acid] yielded an IC50 (Lovo) of 1340 µM, an IC50 (HepG2) of 2230 µM and an IC50 (NIH3T3) of 1460 µM. The IC50 (BGC-823) was 1520 µM, the IC50 (Bel-7402) was over 3000 µM and the Solubility [3, 4] was “soluble in DMSO”. It also gave an IC50 (Hela) of 2480 µM and an IC50 (PLA-801) of 2000 µM.
